Assay results: patent US11098083B2, “Peptide that regulates fat metabolism and method for regulating fat metabolism” (SHENZHEN INSTITUTES OF ADVANCED TECHNOLOGY, priority 2017, dated 2021)
Ends that are not written are not given here.

Tests used:
human GPRC6A (hGPRC6A) = target: T1, human GPRC6A (hGPRC6A) (Homo sapiens, UniProt Q5T6X5); test: fluorescent binding of OCN peptides to cell membranes of Hela cells with hGPRC6A overexpressed; conditions: Hela cells with hGPRC6A overexpressed, fluorescent detection, FIG. 6B
T1 construct: expressed in transfected cells; host or cells: Hela cells (transfected with Lipofectamine 2000)
T1 sequence (Q5T6X5 19-926): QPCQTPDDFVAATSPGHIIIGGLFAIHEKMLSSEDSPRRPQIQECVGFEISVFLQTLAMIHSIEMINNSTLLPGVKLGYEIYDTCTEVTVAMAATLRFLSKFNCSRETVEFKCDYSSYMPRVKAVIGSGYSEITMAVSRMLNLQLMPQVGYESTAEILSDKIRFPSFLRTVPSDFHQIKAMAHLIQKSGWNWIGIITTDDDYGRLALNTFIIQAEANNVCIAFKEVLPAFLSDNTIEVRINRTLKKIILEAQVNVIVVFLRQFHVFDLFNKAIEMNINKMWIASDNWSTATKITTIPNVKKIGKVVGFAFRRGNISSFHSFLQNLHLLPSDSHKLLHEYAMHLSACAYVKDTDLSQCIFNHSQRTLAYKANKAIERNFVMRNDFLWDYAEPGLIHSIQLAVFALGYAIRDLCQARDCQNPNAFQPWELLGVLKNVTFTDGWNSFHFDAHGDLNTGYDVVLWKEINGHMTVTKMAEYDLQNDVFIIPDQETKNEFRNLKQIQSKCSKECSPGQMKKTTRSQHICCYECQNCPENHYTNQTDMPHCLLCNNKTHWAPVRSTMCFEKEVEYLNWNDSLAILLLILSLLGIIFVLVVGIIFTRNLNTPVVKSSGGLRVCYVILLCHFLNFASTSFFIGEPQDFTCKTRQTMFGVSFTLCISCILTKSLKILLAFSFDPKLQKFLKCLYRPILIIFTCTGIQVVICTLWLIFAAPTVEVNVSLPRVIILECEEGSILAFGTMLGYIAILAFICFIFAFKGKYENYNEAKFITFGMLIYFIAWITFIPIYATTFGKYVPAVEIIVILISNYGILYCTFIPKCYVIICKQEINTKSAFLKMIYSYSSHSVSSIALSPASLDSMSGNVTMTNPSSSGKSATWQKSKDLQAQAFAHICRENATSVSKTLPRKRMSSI
Experimental: S131: overexpression of hGPRC6A in Hela cells may be established.
1) Cell plating: A Hela cell suspension may be plated at a density of 1.6×10^5 cells/mL into a 6-well tray with 2 mL of DMEM per well, incubating at 37° C. and 5% CO2 for 24 hours.
2) A vector carrying hGPRC6A (pReceiver-M61) may be transfected into the Hela cells for overexpression, using Lipofectamine 2000 (Invitrogen) as per manufacturer's instructions, and media containing the vector may be replaced by normal media 4 hours later.
3) After the transfection, the cells may be cultured in the normal media for another 48 hours, and the normal media may be discarded. The cells attached on a bottom of each well may be washed twice with sterile PBS, and 300 μl of TRIzol solution may be added into each well. Cellular RNAs may be extracted as per RNAiso Plus (TaKaRa) instructions, and after a DNase treatment, may be reversely transcribed into cDNAs using DNAEngine and a SuperScript™ (Invitrogen, Canada) kit. The cDNAs may be used as a template, and real-time monitoring and analysis may be performed to fluorescent PCR products at various time points using a SYBR Green (Light Cycler Roche, Germany) method to detect expression levels of the hGPRC6A. […] The selected cell strain may then be detected for its gene expression by qPCR. […]

DIO-NAFLD mice = test: i.p. injection of ISAP1 in DIO-NAFLD mice: liver fat (appearance, oil red O staining); format: in vivo, C57BL/6 mice; conditions: daily i.p. injection 6 weeks
Source text: S122: effect of i.p. injection of ISAP1 on the liver may be studied.
In S121, livers may be collected while collecting the adipose tissues, and appearance of the livers may be photographed. A part of liver tissues may be taken for frozen sectioning, stained with oil red O for microscopic observation, and then a same area may be quantitatively analyzed. […] The […] the color is, the higher the fat content is contained.

HFD mice = test: gavage of peptides in HFD mice for 7 weeks: body weight; format: in vivo, C57BL/6 mice; conditions: gavage 2 pmol/g of body weight for 7 weeks, compared with HFD control group, FIG. 7A
Source text: Six-week-old male wild-type C57BL/6 mice may be divided into 6 groups, 6 mice in each group. Group #1 may be provided with ND, and groups #2 to #6 may be provided with HFD. Group #2 may be treated as a HFD control group. Groups #3 to #6 may be experimental groups, and mice ingroups #3 to #6 may be gavaged with OCN, ISAP1, ISAP2, and ISAP3 respectively at 2 pmol/g of body weight for 7 weeks. Body weight of each mouse may be monitored and measured once a week.
Six-week-old male wild-type C57BL/6 mice may be divided into 6 groups, 6 in each group. Group #1 may be provided with ND to be a ND control group, and groups #2 to #6 may be provided with HFD. Group #2 may be treated as a HFD control group. Groups #3 to #6 may be treated as experimental groups and may be gavaged with OCN, ISAP1, ISAP2, and ISAP3 respectively at 2 pmol/g of body weight daily for 7 weeks. Body weight may be monitored and measured once a week.
Six-week-old male wild-type C57BL/6 mice may be divided into 6 groups, 6 in each group. Group #1 may be provided with ND to be a ND control group, groups #2 to #6 may be provided with HFD. Group #2 may be treated as a HFD control group. Groups #3 to #6 may be treated as experimental groups, and may be gavaged with OCN, ISAP1, ISAP2, and ISAP3 respectively at 2 pmol/g of body weight daily for 7 weeks. A body weight of each mouse may be monitored and measured once a week.

affinity of binding to the hGPRC6A compared with OCN (human GPRC6A (hGPRC6A)): consistent with that of the OCN
Sequence: YLGASVPSPDPLEPT [ISAP1]
proportion of fat in the liver (oil red O staining) (DIO-NAFLD mice; compared with HFD control group, FIG. 3C): decreased significantly
liver fat accumulation (liver appearance) (DIO-NAFLD mice; vs HFD+carrier, FIG. 3A): significantly reduce the liver fat accumulation
body weight (HFD mice): significant weight loss
